Laboratory results published in the supplement of paper PMC7214452.

What was measured:
Test in all cases: normalized area under the dose-response curve (viability relative to DMSO control) (fraction); higher = less sensitive (more viable cells)
Conditions in all cases: exposure time not given
AMO1 (cancer type: MM) = test system: AMO1 (cancer type: MM)
Protocol: (§1)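 25 myeloma and 15 non-Hodgkin lymphoma cell lines were exposed to each of 76 drugs as 7-point log dilutions (0.01 nM–10 µM) in duplicate. Viability was read with CellTiter-Glo and normalised to DMSO (0.1%) and staurosporine (10 µM) plate controls. Normalised AUC was calculated by the trapezoidal method relative to the negative control.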

EJM (cancer type: MM) = test system: EJM (cancer type: MM)
Protocol: as §1

FR4 (cancer type: MM) = test system: FR4 (cancer type: MM)
Protocol: as §1

[1] = test system: Granta-519 (cancer type: Mantle)
Protocol: as §1

[2] = test system: HuT 78 (cancer type: TCL)
Protocol: as §1

JJN3 (cancer type: MM) = test system: JJN3 (cancer type: MM)
Protocol: as §1

[3] = test system: JVM2 (cancer type: Mantle)
Protocol: as §1

[4] = test system: JeKo-1 (cancer type: Mantle)
Protocol: as §1

KMS11 (cancer type: MM) = test system: KMS11 (cancer type: MM)
Protocol: as §1

[5] = test system: KMS12PE (cancer type: MM)
Protocol: as §1

KMS18 (cancer type: MM) = test system: KMS18 (cancer type: MM)
Protocol: as §1

KMS26 (cancer type: MM) = test system: KMS26 (cancer type: MM)
Protocol: as §1

[6] = test system: KMS28BM (cancer type: MM)
Protocol: as §1

[7] = test system: KMS28PE (cancer type: MM)
Protocol: as §1

KMS34 (cancer type: MM) = test system: KMS34 (cancer type: MM)
Protocol: as §1

[8] = test system: Karpas-299 (cancer type: TCL)
Protocol: as §1

L363 (cancer type: MM) = test system: L363 (cancer type: MM)
Protocol: as §1

LP1 (cancer type: MM) = test system: LP1 (cancer type: MM)
Protocol: as §1

MM1.R (cancer type: MM) = test system: MM1.R (cancer type: MM)
Protocol: as §1

MM1.S (cancer type: MM) = test system: MM1.S (cancer type: MM)
Protocol: as §1

[9] = test system: Mino (cancer type: Mantle)
Protocol: as §1

My-La (cancer type: TCL) = test system: My-La (cancer type: TCL)
Protocol: as §1

[10] = test system: NCI-H929 (cancer type: MM)
Protocol: as §1

[11] = test system: OCI-LY1 (cancer type: DLBCL)
Protocol: as §1

[12] = test system: OCI-LY19 (cancer type: DLBCL)
Protocol: as §1

[13] = test system: OCI-LY3 (cancer type: DLBCL)
Protocol: as §1

[14] = test system: OCI-MY5 (cancer type: MM)
Protocol: as §1

[15] = test system: OCI-MY5/CRBN (cancer type: MM)
Protocol: as §1

[16] = test system: OCI-MY5/Vec (cancer type: MM)
Protocol: as §1

[17] = test system: OCI-MY7 (cancer type: MM)
Protocol: as §1

OPM2 (cancer type: MM) = test system: OPM2 (cancer type: MM)
Protocol: as §1

[18] = test system: RPMI 8226 (cancer type: MM)
Protocol: as §1

SKMM2 (cancer type: MM) = test system: SKMM2 (cancer type: MM)
Protocol: as §1

[19] = test system: SR-786 (cancer type: TCL)
Protocol: as §1

[20] = test system: SU-DHL1 (cancer type: TCL)
Protocol: as §1

[21] = test system: SU-DHL2 (cancer type: DLBCL)
Protocol: as §1

[22] = test system: SU-DHL6 (cancer type: DLBCL)
Protocol: as §1

Se-Ax (cancer type: TCL) = test system: Se-Ax (cancer type: TCL)
Protocol: as §1

U266 (cancer type: MM) = test system: U266 (cancer type: MM)
Protocol: as §1

XG2 (cancer type: MM) = test system: XG2 (cancer type: MM)
Protocol: as §1

Row | SMILES | normalized area under the dose-response curve (AMO1 (cancer type: MM)) | normalized area under the dose-response curve (EJM (cancer type: MM)) | normalized area under the dose-response curve (FR4 (cancer type: MM)) | normalized area under the dose-response curve [1] | normalized area under the dose-response curve [2] | normalized area under the dose-response curve (JJN3 (cancer type: MM)) | normalized area under the dose-response curve [3] | normalized area under the dose-response curve [4] | normalized area under the dose-response curve (KMS11 (cancer type: MM)) | normalized area under the dose-response curve [5] | normalized area under the dose-response curve (KMS18 (cancer type: MM)) | normalized area under the dose-response curve (KMS26 (cancer type: MM)) | normalized area under the dose-response curve [6] | normalized area under the dose-response curve [7] | normalized area under the dose-response curve (KMS34 (cancer type: MM)) | normalized area under the dose-response curve [8] | normalized area under the dose-response curve (L363 (cancer type: MM)) | normalized area under the dose-response curve (LP1 (cancer type: MM)) | normalized area under the dose-response curve (MM1.R (cancer type: MM)) | normalized area under the dose-response curve (MM1.S (cancer type: MM)) | normalized area under the dose-response curve [9] | normalized area under the dose-response curve (My-La (cancer type: TCL)) | normalized area under the dose-response curve [10] | normalized area under the dose-response curve [11] | normalized area under the dose-response curve [12] | normalized area under the dose-response curve [13] | normalized area under the dose-response curve [14] | normalized area under the dose-response curve [15] | normalized area under the dose-response curve [16] | normalized area under the dose-response curve [17] | normalized area under the dose-response curve (OPM2 (cancer type: MM)) | normalized area under the dose-response curve [18] | normalized area under the dose-response curve (SKMM2 (cancer type: MM)) | normalized area under the dose-response curve [19] | normalized area under the dose-response curve [20] | normalized area under the dose-response curve [21] | normalized area under the dose-response curve [22] | normalized area under the dose-response curve (Se-Ax (cancer type: TCL)) | normalized area under the dose-response curve (U266 (cancer type: MM)) | normalized area under the dose-response curve (XG2 (cancer type: MM))
1 | Cn1ncc(Cl)c1-c1cc(C(=O)N[C@H](CN)Cc2cccc(F)c2)sc1Cl [Afuresertib] | 0.414 | 0.486 | 0.591 | 0.821 | 0.758 | 0.55 | 0.652 | 0.808 | 0.439 | 0.49 | 0.293 | 0.499 | 0.363 | 0.282 | 0.211 | 0.765 | 0.375 | 0.384 | 0.2 | 0.26 | 0.813 | 0.784 | 0.33 | 0.657 | 0.739 | 0.851 | 0.398 | 0.742 | 0.637 | 0.7 | 0.369 | 0.331 | 0.49 | 0.713 | 0.48 | 0.913 | 0.816 | 0.416 | 0.525 | 0.436
2 | Cc1ccc(C(=O)Nc2ccc(CN3CCN(C)CC3)c(C(F)(F)F)c2)cc1C#Cc1cnc2cccnn12 [Ponatinib] | 0.431 | 0.427 | 0.451 | 0.755 | 0.527 | 0.344 | 0.44 | 0.52 | 0.458 | 0.48 | 0.479 | 0.593 | 0.551 | 0.501 | 0.298 | 0.719 | 0.461 | 0.408 | 0.5 | 0.57 | 0.501 | 0.615 | 0.52 | 0.678 | 0.726 | 0.859 | 0.361 | 0.665 | 0.613 | 0.48 | 0.419 | 0.237 | 0.55 | 0.673 | 0.239 | 0.797 | 0.79 | 0.417 | 0.381 | 0.454
3 | O=C(c1ccc(OCCN2CCCCC2)cc1)c1c(-c2ccc(O)cc2)sc2cc(O)ccc12 [Raloxifene] | 0.704 | 0.859 | 0.896 | 0.939 | 0.786 | 0.821 | 0.884 | 0.939 | 0.866 | 0.91 | 0.848 | 0.869 | 0.889 | 0.849 | 0.657 | 0.945 | 0.829 | 0.731 | 0.89 | 0.85 | 1.01 | 0.974 | 0.91 | 0.932 | 0.914 | 0.945 | 0.744 | 0.857 | 0.787 | 0.92 | 0.865 | 0.86 | 0.953 | 0.78 | 0.677 | 0.919 | 0.856 | 0.854 | 0.814 | 0.746
4 | N#CC[C@H](C1CCCC1)n1cc(-c2ncnc3[nH]ccc23)cn1 [Ruxolitinib] | 0.911 | 0.886 | 0.927 | 0.925 | 0.853 | 0.894 | 0.774 | 1.01 | 0.87 | 0.91 | 0.978 | 0.802 | 0.913 | 0.879 | 0.708 | 0.742 | 0.863 | 0.861 | 0.85 | 0.91 | 0.983 | 0.775 | 0.91 | 0.997 | 0.972 | 0.944 | 0.853 | 0.993 | 0.898 | 0.89 | 0.931 | 0.997 | 0.958 | 0.83 | 0.713 | 0.959 | 0.928 | 0.828 | 0.833 | 0.804
